# Source: EPA's ToxValDB 9.5 (doi:10.2903/j.efsa.2009.296r)
# Tests used:
# Mus musculus = conditions: acute; oral; mortality
# Coturnix coturnix = conditions: oral
# Oryctolagus sp. = conditions: developmental; development
# Daphnia magna = conditions: chronic/long-term; duration: 21 days
# Anas platyrhynchos = conditions: oral
# Oncorhynchus mykiss = conditions: chronic/long-term; duration: 28 days
# [1] = reproductive; oral; feed; reproduction
# Salmo trutta ssp. fario = conditions: acute; duration: 96 hours; mortality
# Apis mellifera = conditions: acute, duration: 48 hours, mortality
structure (smiles),measurement,setting,value
O=C1C2CC=CCC2C(=O)N1SC(Cl)(Cl)Cl (stereo not drawn) [Captan],LD50,Mus musculus,> 2000 mg/kg
same,LC50,"Tagia sp.; acute, duration: 14 days, mortality",> 519 mg/kg
same,NOEC,"Tagia sp.; chronic/long-term, duration: 8 weeks, reproduction",11.6 mg/kg
same,LC50,"Coturnix coturnix; acute, diet, mortality",> 800 mg/kg-day
same,LD50,"Coturnix coturnix; acute, mortality",> 2000 mg/kg
same,NOEC,"Coturnix coturnix; reproduction developmental, no effects",83.2 mg/kg-day
same,NOAEL,Oryctolagus sp.,30 mg/kg-day
same,LD50,"Rattus norvegicus; acute, oral, mortality",> 2000 mg/kg
same,NOAEL,"Rattus norvegicus; developmental, development",10 mg/kg-day
same,NOEC,Daphnia magna,0.56 mg/L
same,LD50,"Anas platyrhynchos; acute, unspecified, mortality",> 2000 mg/kg
same,NOEC,"Anas platyrhynchos; reproductive, unspecified, no effects",74.4 mg/kg-day
same,LC50,"Anas platyrhynchos; short-term, feed, mortality",> 1040 mg/kg-day
same,NOEC,Oncorhynchus mykiss,0.199 mg/L
same,NOAEL,[1],100 mg/kg-day
same,LC50,Salmo trutta ssp. fario,0.098 mg/L
same,LC50,Apis mellifera; dermal,> 200 µg/piece
same,LD50,"Apis mellifera; oral, unspecified",> 100 µg/piece
